Read-outs that look alike come from different tables or passages of the source.
How the values were obtained:
[1] = biological target: GSK3α (GST-full length GSK3α) (Homo sapiens (Human), UniProt P49840); assay: GSK3α TR-FRET kinase assay; type: biochemical
Procedure, shortened: (§1)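 Compound was preincubated 30 min with 1 nM GST-GSK3 enzyme. Reaction ran 100 min at ambient temperature in Tris pH 7.5/MgCl2 with 200 nM biotinylated pS645-glycogen synthase 631-650 peptide and ATP (4 μM GSK3α, 2 μM GSK3b, or 1 mM). The EDTA-stopped reaction was read by TR-FRET (Tb-anti-pSer641/streptavidin-d2), and IC50s were fitted.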

[2] = biological target: GSK3b (GST-full length GSK3b) (Homo sapiens (Human), UniProt P49841); assay: GSK3b TR-FRET kinase assay; type: biochemical
Sequence of GSK3b (GST-full length GSK3b) (P49841 whole entry): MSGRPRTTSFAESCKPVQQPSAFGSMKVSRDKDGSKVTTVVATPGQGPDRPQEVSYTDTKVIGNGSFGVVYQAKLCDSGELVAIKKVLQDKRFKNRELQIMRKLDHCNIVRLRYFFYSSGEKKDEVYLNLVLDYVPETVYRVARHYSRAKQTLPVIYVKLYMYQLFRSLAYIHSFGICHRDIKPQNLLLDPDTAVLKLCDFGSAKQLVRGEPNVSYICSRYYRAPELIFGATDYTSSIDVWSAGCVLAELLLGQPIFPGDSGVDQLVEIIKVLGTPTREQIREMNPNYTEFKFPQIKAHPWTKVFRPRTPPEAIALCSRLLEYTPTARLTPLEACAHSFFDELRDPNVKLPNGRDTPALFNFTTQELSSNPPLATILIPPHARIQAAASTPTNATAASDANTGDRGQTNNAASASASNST
Procedure, shortened: as §1

[3] = 1 nM GSK3α, 4 μM ATP, 30 minute preincubation, Table 16, read-out: GSK3-A TR-FRET BIOCHEMICAL (TR-FRET)
[4] = 1 nM GSK3b, 2 μM ATP, 30 minute preincubation, Table 16, read-out: GSK3-B TR-FRET BIOCHEMICAL (TR-FRET)
[5] = 1 nM GSK3α, 4 μM ATP, 30 minute preincubation, Table 16, read-out: GSK3-A TR-FRET BIOCHEMICAL (TR-FRET), IC50
[6] = 1 nM GSK3b, 2 μM ATP, 30 minute preincubation, Table 16, read-out: GSK3-B TR-FRET BIOCHEMICAL (TR-FRET), IC50
[7] = 1 nM GSK3α, 4 μM ATP, 30 minute preincubation, read-out: GSK3-A TR-FRET BIOCHEMICAL (TR-FRET), IC50
[8] = 1 nM GSK3b, 2 μM ATP, 30 minute preincubation, read-out: GSK3-B TR-FRET BIOCHEMICAL (TR-FRET), IC50
[9] = 1 nM GSK3α, 4 μM ATP, 30 minute preincubation, geometric mean, read-out: GSK3-A TR-FRET BIOCHEMICAL (TR-FRET), GMean, IC50
[10] = 1 nM GSK3b, 2 μM ATP, 30 minute preincubation, geometric mean, read-out: GSK3-B TR-FRET BIOCHEMICAL (TR-FRET), GMean, IC50
[11] = read-out: GSK3-B (TR-FRET 1 mM ATP), GMean, IC50, 1 mM ATP, geometric mean
[12] = read-out: GSK3-A (TR-FRET 1 mM ATP), GMean, IC50, 1 mM ATP, geometric mean
[13] = GSK3-A (TR-FRET 1 mM ATP), GMean, IC50, 1 mM ATP, geometric mean
[14] = GSK3-B (TR-FRET 1 mM ATP), GMean, IC50, 1 mM ATP, geometric mean

Sequence of GSK3α (GST-full length GSK3α) (P49840 whole entry): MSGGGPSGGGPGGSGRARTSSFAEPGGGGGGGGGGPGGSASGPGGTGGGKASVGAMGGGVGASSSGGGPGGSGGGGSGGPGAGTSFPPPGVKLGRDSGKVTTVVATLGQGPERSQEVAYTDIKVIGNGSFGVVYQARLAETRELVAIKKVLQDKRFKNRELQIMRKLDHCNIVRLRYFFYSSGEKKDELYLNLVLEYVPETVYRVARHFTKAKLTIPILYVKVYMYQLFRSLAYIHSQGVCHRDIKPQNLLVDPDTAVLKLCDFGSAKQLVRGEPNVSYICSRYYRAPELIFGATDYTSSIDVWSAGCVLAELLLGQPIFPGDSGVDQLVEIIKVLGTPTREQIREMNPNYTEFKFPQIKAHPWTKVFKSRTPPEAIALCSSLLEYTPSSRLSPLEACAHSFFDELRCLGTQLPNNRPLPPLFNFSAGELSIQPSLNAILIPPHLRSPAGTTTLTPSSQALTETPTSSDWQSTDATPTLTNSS

Row | SMILES | IC50 [1, 3] [nM] | IC50 [2, 4] [nM] | IC50 [1, 5] [nM] | IC50 [2, 6] [nM] | also measured
1 | CC1(C)CC(=O)C2=C(C1)Nc1n[nH]cc1[C@@]21CC[C@H](C(F)(F)F)C1 [Compound 952434] | 100 to 1000 | 100 to 1000 |  |  | 
2 | CCC1(c2cccc(-c3cc(C)nn3C)c2)C2=C(CC(C)(C)C2=O)Nc2n[nH]cc21 (centres unmarked) [Compound 950818] |  |  | 100 to 1000 | 1000 to 5000 | 
3 | CCC1(c2cccc(N3CCOCC3)c2)C2=C(CC(C)(C)NC2=O)Nc2n[nH]cc21 (centres unmarked) [Compound 945602] |  |  |  |  | IC50 [1, 7]: 1000 to 5000 nM; IC50 [2, 8]: > 5000 nM
4 | CCC1(c2cccc(-c3cc(C)ncc3F)c2)C2=C(CC(C)(C)NC2=O)Nc2n[nH]cc21 (centres unmarked) [Compound 947804] |  |  |  |  | IC50 [1, 9]: ≤ 100 nM; IC50 [2, 10]: 100 to 1000 nM
5 | CCC1(c2cccc(-c3cc(C)ncc3F)c2)C2=C(CC(C)(C)NC2=O)Nc2n[nH]c(C)c21 (centres unmarked) [Compound 948761] |  |  |  |  | IC50 [1, 9]: ≤ 100 nM; IC50 [2, 10]: ≤ 100 nM
6 | CC1(C)CC(=O)C2=C(C1)Nc1n[nH]cc1[C@]21CCO[C@H](C(C)(C)C)C1 [Compound 912112] | 100 to 1000 | 100 to 1000 |  |  | 
7 | CCC1(c2cccc(-c3ccncc3C)c2)C2=C(CC(C)(C)NC2=O)Nc2n[nH]cc21 (centres unmarked) [Compound 947576] |  |  |  |  | IC50 [1, 9]: ≤ 100 nM; IC50 [2, 10]: 1000 to 5000 nM
8 | CCC1(c2cccc(-c3cnn(C)c3)c2)C2=C(Nc3n[nH]cc31)C(F)C(C)(C)CC2=O (centres unmarked) [Compound 957504] | 100 to 1000 | 1000 to 5000 |  |  | IC50 [2, 11]: > 5000 nM
9 | CC1(C)CC(=O)C2=C(C1)Nc1n[nH]cc1C21CCCN(C(=O)c2ccccc2)CC1 (centres unmarked) [Compound 889577] |  |  | 1000 to 5000 | 1000 to 5000 | 
10 | CCC1(c2cccc(-c3ccnc(C)c3)c2)C2=C(CC3(CCCC3)NC2=O)Nc2n[nH]cc21 (centres unmarked) [Compound 948641] |  |  |  |  | IC50 [1, 9]: > 5000 nM; IC50 [2, 10]: > 5000 nM
11 | CCC1(c2cccc(-c3ccnc(C)c3)c2)C2=C(CC(C)(C)NC2=O)Nc2n[nH]c(C)c21 (centres unmarked) [Compound 947798] |  |  |  |  | IC50 [1, 9]: ≤ 100 nM; IC50 [2, 10]: 100 to 1000 nM
12 | CC1(C)CC(=O)C2=C(C1)Nc1n[nH]cc1C21CCN(S(=O)(=O)c2cccc(Cl)c2Cl)CC1 [Compound 947249] | ≤ 100 | ≤ 100 |  |  | 
13 | CC[C@@]1(c2cccc(C(F)(F)F)c2)C2=C(Nc3n[nH]cc31)[C@@H](C)N(Cc1ccccc1)C2=O [Compound 930330] |  |  |  |  | IC50 [1, 7]: ≤ 100 nM; IC50 [2, 8]: 100 to 1000 nM
14 | CC1(C)CC(=O)C2=C(C1)Nc1n[nH]cc1C21CCCN(c2ccncc2)CC1 (centres unmarked) [Compound 932633] |  |  | > 5000 | > 5000 | 
15 | CCC1(c2cccc(-c3ccnn3C)c2)C2=C(CC(C)(C)CC2=O)Nc2n[nH]c(C(F)(F)F)c21 (centres unmarked) [Compound 945531] | ≤ 100 | ≤ 100 |  |  | IC50 [1, 12]: ≤ 100 nM; IC50 [2, 11]: 100 to 1000 nM
16 | CCC1(c2cccc(N(C)c3nccc(OC)n3)c2)C2=C(CC(C)(C)CC2=O)Nc2n[nH]cc21 (centres unmarked) [Compound 929387] |  |  | ≤ 100 | ≤ 100 | 
17 | Cn1cc(S(=O)(=O)N2CC[C@@]3(C2)C2=C(CC(C)(C)CC2=O)Nc2n[nH]cc23)cn1 [Compound 951726] | ≤ 100 | ≤ 100 |  |  | IC50 [1, 13]: 1000 to 5000 nM; IC50 [2, 14]: 1000 to 5000 nM
18 | CC[C@]1(c2cccc(-c3cn[nH]c3)c2)C2=C(CC(C)(C)NC2=O)Nc2n[nH]c(C(F)(F)F)c21 [Compound 948307] |  |  |  |  | IC50 [1, 9]: ≤ 100 nM; IC50 [1, 12]: ≤ 100 nM; IC50 [2, 10]: ≤ 100 nM; IC50 [2, 11]: ≤ 100 nM
19 | CC1(C)CC(=O)C2=C(C1)Nc1n[nH]cc1[C@@]21CC[C@@H](C(F)(F)F)C1 [Compound 952436] | ≤ 100 | ≤ 100 |  |  | IC50 [1, 13]: 1000 to 5000 nM; IC50 [2, 14]: 1000 to 5000 nM
20 | CC1(C)CC(=O)C2=C(C1)Nc1n[nH]cc1C21COC2(CN(C(=O)CC3CC(F)(F)C3)C2)C1 (centres unmarked) [Compound 947278] |  |  |  |  | IC50 [1, 7]: ≤ 100 nM; IC50 [2, 8]: ≤ 100 nM
21 | C[C@@H]1C[C@H](C)C[C@]2(C1)C1=C(CC(C)(C)CC1=O)Nc1n[nH]cc12 [Compound 884114] | 100 to 1000 | 100 to 1000 |  |  | 

Row | SMILES | IC50 [1, 3] [nM] | IC50 [2, 4] [nM] | IC50 [1, 5] [nM] | IC50 [2, 6] [nM] | also measured
22 | CC1(C)CC(=O)C2=C(C1)Nc1n[nH]cc1[C@]21CO[C@H](C2CC2)C1 [Compound 913184] |  |  | 100 to 1000 | 1000 to 5000 | 
23 | CC[C@@]1(c2cccc(C(F)(F)F)c2)C2=C(CC3(CCC3)NC2=O)Nc2n[nH]cc21 [Compound 914308] |  |  |  |  | IC50 [1, 7]: ≤ 100 nM; IC50 [1, 12]: 100 to 1000 nM; IC50 [2, 8]: ≤ 100 nM; IC50 [2, 11]: 1000 to 5000 nM
24 | CCC1(c2cccc(C(F)(F)F)c2)C2=C(CN(C)C2=O)Nc2n[nH]cc21 (centres unmarked) [Compound 917294] | 100 to 1000 | 1000 to 5000 |  |  | 
25 | CCC1(c2cccc(N3CCCCCC3)c2)C2=C(CC(C)(C)CC2=O)Nc2n[nH]cc21 (centres unmarked) [Compound 885088] |  |  | 100 to 1000 | 100 to 1000 | 
26 | Cc1cccc(S(=O)(=O)N2CCC3(CC2)C2=C(CC(C)(C)CC2=O)Nc2n[nH]cc23)c1 [Compound 947261] | ≤ 100 | ≤ 100 |  |  | 
27 | CCC1(c2cccc(Br)c2)C2=C(CC(C)(C)CC2=O)Nc2n[nH]c(C(F)(F)F)c21 (centres unmarked) [Compound 801324] |  |  |  |  | IC50 [1, 9]: ≤ 100 nM; IC50 [2, 10]: ≤ 100 nM
28 | CCC1(c2cccc(-c3cncn3C(C)C)c2)C2=C(CC(C)(C)CC2=O)Nc2n[nH]cc21 (centres unmarked) [Compound 944026] | ≤ 100 | ≤ 100 |  |  | 
29 | CCC1(CC)C2=C(CC(C)(C)CC2=O)Nc2n[nH]c(C3CC3)c21 [Compound 877294] |  |  | > 5000 | > 5000 | 
30 | CCC1(c2cccc(C(F)(F)F)c2)C2=C(CCN(c3cc(C)n(C)n3)C2=O)Nc2n[nH]cc21 (centres unmarked) [Compound 950608] |  |  | 100 to 1000 | 1000 to 5000 | 
31 | Cc1cccc2c1CC[C@]21C2=C(CC(C)(C)CC2=O)Nc2n[nH]cc21 [Compound 913136] |  |  | ≤ 100 | 100 to 1000 | 
32 | CC1(C)CC(=O)C2=C(C1)Nc1n[nH]c(CC(F)(F)F)c1C21CCc2c(F)cccc21 (centres unmarked) [Compound 810590] |  |  |  |  | IC50 [1, 9]: 100 to 1000 nM; IC50 [2, 10]: 100 to 1000 nM
33 | CC[C@]1(c2cccc(N(C)c3cncnc3)c2)C2=C(CC(C)(C)NC2=O)Nc2n[nH]cc21 [Compound 915401] |  |  | 100 to 1000 | 1000 to 5000 | 
34 | CCC1(c2cccc(-c3ccnc(C)c3)c2)C2=C(CC(C)(C)CC2=O)Nc2n[nH]c(C(F)(F)F)c21 (centres unmarked) [Compound 917289] |  |  | 100 to 1000 | 1000 to 5000 | IC50 [1, 12]: > 5000 nM; IC50 [2, 11]: > 5000 nM
35 | CC1(C)CC(=O)C2=C(C1)Nc1n[nH]cc1C21CCN(S(=O)(=O)c2ccccc2Cl)CC1 [Compound 945655] | ≤ 100 | ≤ 100 |  |  | 
36 | Cn1nc(C(F)(F)F)cc1S(=O)(=O)N1CCC2(CC1)C1=C(CC(C)(C)CC1=O)Nc1n[nH]cc12 [Compound 947606] | ≤ 100 | ≤ 100 |  |  | 
37 | CCC1(c2cccc(C(C)C)c2)C2=C(CC(C)(C)NC2=O)Nc2n[nH]c(C)c21 (centres unmarked) [Compound 949173] |  |  |  |  | IC50 [1, 9]: ≤ 100 nM; IC50 [2, 10]: ≤ 100 nM
38 | CC1(C)CC(=O)C2=C(C1)Nc1n[nH]cc1C21CCCS(=O)(=O)CC1 (centres unmarked) [Compound 927343] | ≤ 100 | 100 to 1000 |  |  | 
39 | CC1(C)CC(=O)C2=C(C1)Nc1n[nH]cc1C21CN(Cc2ccccc2)C1 [Compound 929436] |  |  | > 5000 | > 5000 | 
40 | CCC1(c2cccc(N3CCOc4ncccc43)c2)C2=C(CC(C)(C)CC2=O)Nc2n[nH]cc21 (centres unmarked) [Compound 932643] |  |  | 100 to 1000 | 1000 to 5000 | 
41 | CCC1(c2cccc(-c3ccnc(C)c3)c2)C2=C(CC(C)(C)NC2=O)Nc2n[nH]c(F)c21 (centres unmarked) [Compound 948299] |  |  |  |  | IC50 [1, 9]: ≤ 100 nM; IC50 [2, 10]: 1000 to 5000 nM

— patent US20250313563A1, “GLYCOGEN SYNTHASE KINASE 3 INHIBITORS AND USES THEREOF” (The Broad Institute, Inc., priority 2022, published 2025)
